Measured values as given in patent publication US20260258035A1, “FIVE-MEMBERED AND SIX-MEMBERED NITROGEN-CONTAINING COMPOUND, AND INTERMEDIATE, PREPARATION METHOD AND USE THEREOF” (HANGZHOU SYNRX THERAPEUTICS BIOMEDICAL TECHNOLOGY CO., LTD., priority 2022, published 2026).
≈ marks a conversion by molar mass, not a printed value. Read-outs that look alike come from different tables or passages of the source.

Legend:
[1] = target: PARG (poly ADP-ribonal hydrolase) (Homo sapiens, UniProt Q86W56); experiment: Biochemical assay (PARG, TFMU-ADPr substrate); details: PARG, TFMU-ADPr substrate
Chain of PARG (poly ADP-ribonal hydrolase) (Q86W56 whole entry): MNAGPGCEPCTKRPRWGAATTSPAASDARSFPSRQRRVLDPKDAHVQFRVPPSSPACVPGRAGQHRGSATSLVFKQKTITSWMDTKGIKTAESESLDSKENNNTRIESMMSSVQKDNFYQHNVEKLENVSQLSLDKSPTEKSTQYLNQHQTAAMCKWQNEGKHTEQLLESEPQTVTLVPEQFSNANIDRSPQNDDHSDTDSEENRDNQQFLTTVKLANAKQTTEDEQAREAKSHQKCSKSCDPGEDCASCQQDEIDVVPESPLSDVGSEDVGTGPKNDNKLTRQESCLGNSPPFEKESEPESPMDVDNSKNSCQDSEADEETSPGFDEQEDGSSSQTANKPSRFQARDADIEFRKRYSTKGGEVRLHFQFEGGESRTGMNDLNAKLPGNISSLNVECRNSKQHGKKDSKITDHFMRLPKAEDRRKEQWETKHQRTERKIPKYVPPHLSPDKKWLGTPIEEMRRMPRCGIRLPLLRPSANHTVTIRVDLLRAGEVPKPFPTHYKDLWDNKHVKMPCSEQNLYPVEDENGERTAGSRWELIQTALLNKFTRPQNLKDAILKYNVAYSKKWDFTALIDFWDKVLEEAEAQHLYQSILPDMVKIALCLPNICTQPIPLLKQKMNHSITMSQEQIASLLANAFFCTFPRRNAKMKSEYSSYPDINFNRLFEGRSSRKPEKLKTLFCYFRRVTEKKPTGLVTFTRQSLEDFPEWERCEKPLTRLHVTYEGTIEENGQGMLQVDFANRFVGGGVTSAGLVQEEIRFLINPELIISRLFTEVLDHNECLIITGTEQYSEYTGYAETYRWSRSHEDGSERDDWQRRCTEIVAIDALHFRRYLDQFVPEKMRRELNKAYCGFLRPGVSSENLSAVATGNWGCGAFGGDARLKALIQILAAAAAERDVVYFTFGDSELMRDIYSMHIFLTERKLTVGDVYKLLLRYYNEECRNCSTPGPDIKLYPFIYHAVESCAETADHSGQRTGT

[2] = target: PARG (Homo sapiens, UniProt Q86W56); experiment: Biochemical assay (PARG, TFMU-ADPr substrate); details: PARG, TFMU-ADPr substrate
Chain of PARG (Q86W56 whole entry): as above

[3] = system: HCC1806; experiment: Cell viability assay (CellTiter-Glo); type: cell-based, Human; details: HCC1806, 7 days, CellTiter-Glo, read-out: IC50 (nM) in cell viability assay
[4] = Solubility assay (FaSSGF / FaSSIF); type: physicochemical; details: kinetic from dmso stock, 2 h at 25° C.
Procedure: 1). Preparation of Solutions:
The FaSSGF solution was prepared as follows: • a) preparation of FaSSGF buffer: dissolve 2.0 g of NaCl as the raw material in about 0.9 L of purified water; • b) adjustment of the pH of the buffer: adjust the pH of the buffer to 1.6 with 1N HCL, and replenish the buffer with purified water to the volume of 1 L; and • c) preparation of FaSSGF solution by addition of FaSSGF powder: add 0.06 g of the FaSSGF powder to about 0.5 L of the buffer, stir until the powder was completely dissolved, and make up for the volume (1 L) with the buffer.
The FaSSIF solution was prepared as follows: • a) preparation of FaSSIF buffer: dissolve 0.42 g of NaOH, 3.44 g of anhydrous NaH2PO4, and 6.19 g of NaCl as raw materials in about 0.9 L of purified water; • b) adjustment the pH of the buffer: adjust the pH of the buffer to 6.5 with 1 N NaOH or 1 N HCL, and replenish the buffer with purified water to the volume of 1 L; and • c) preparation of FaSSIF solution by addition of FaSSIF powder: add 2.24 g of the FaSSIF powder to about 0.5 L of the buffer, stir until the powder was completely dissolved, and make up for the volume (1 L) with the buffer.
2). Preparation of the Solution of Control Compound:
The control compound was weighed and dissolved in DMSO to 10 mM to obtain a stock solution.
3) Preparation of the Solution of Compound to be Tested:
The compound to be tested was formulated into a 10 mM DMSO stock solution.
4) Preparation of Internal Standard Solution:
a) The internal standard was weighed and dissolved in DMSO to 10 mM to obtain an internal standard stock solution (ISTD stock solution).
b) The internal standard stock solution was diluted to 500 nM (Tolbutamide) with an ACN:methano mixture (volume ratio: 1:1) to obtain a quenching solution.
a) The FaSSGF solution at pH 1.6 and the FaSSIF solution at pH 6.5 were pre-warmed; and then, the compound was injected into the buffer.
Once done, the samples were centrifuged at 12,000 rpm for 10 min, and the supernatant was transferred to a new tube. The supernatant was diluted 10-fold and 100-fold with the FaSSGF solution at pH 1.6 or the FaSSIIF solution at pH 6.5. 20 μL of each sample (1×, 10×, 100× and standard curve) was added to 500 μL of the IS solution. The resulting mixture was vortexed vigorously for 1 min and centrifuged at 4,500 rpm for 15 min at 4° C. 150 μL of the supernatant was transferred for LC-MS/MS sample analysis.

[5] = target: T1, PXR (Homo sapiens, UniProt O75469); experiment: PXR assay (DPX2 luciferase reporter cells); type: cell-based; details: 24 h; for PXR Activation @30 uM (% Ctrl): positive control rifampicin
T1 construct: host or cells: DPX2 (HepG2)
T1 sequence (O75469 1-434): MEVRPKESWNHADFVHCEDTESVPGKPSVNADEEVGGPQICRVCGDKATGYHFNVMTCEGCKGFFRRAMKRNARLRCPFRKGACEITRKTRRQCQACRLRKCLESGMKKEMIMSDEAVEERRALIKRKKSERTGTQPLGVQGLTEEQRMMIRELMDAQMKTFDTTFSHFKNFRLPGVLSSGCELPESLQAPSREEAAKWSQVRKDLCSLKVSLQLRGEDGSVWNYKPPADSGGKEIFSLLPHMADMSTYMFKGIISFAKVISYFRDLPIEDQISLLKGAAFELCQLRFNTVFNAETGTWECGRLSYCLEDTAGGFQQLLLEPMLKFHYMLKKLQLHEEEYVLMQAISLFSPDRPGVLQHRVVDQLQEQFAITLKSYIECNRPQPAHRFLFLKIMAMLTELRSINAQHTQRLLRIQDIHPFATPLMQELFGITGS
Procedure: 1) Information of Cell Line
DPX2 (HepG2 cells stably transfected with PXR and luciferase reporter) cells were purchased from Puracyp Inc (Carlsbad, CA).
2) Experimental Procedures a) Reagents and Consumables
The DPX2 cells were cultured in the growth medium containing 1000 fetal bovine serum. The DPX2 cells in a T-75 flask were cultured in the […] incubator at 37° C. with 950% relative humidity, and digested when the cells grew to cover 80-90% of the bottom of the flask.
The surface layer of the T-75 cultured cells was washed with 10 mL of PBS; PBS was pipetted; 3-5 mL of tryp sin was added; the cells were digested at 37° C. for 5 minutes or until the cells were digested to be suspended; and excessive medium containing fetal bovine serum was added to stop trypsinization. The cell suspension was transferred to a conical-bottomed centrifuge tube and centrifuged at 150 g rpm for 5 minutes at room temperature; the supernatant was carefully pipetted; and the cells were resuspended with the treatment medium, with the concentration adjusted to 3.2×10^5 cells/mL (incubation time: 24 hours, plate seeding density: […]). 25 μL of the cell suspension was added to each well of the 384-well cell culture plate.
The cell culture plate was placed and cultured for 24 h in the […] incubator with 9500 humidity at 37° C. c) Formulation of Compound
The stock solution of each of 1000× test compound, the positive control (rifampicin), and the negative control (propranolol) was prepared with DMSO. The final concentrations of the positive control (rifampicin) were 1 μM and 10 μM, and the final concentration of the negative control (propranolol) was 10 μM. The final concentrations of the test compound were 10 μM, 1 μM, 0.1 μM, or EC50 (30 μM, 10 μM, 3 μM, 1 μM, 0.3 μM, 0.1 μM). The final concentration of DMSO was 0.10. The cell culture plate was taken out from the incubator, and 25 nL of the stock solution of the positive control, negative control or test compound was directly added with Echo, each with three parallel concentrations. The cell culture plate was placed in the incubator and continued to be incubated for 24 h. Before starting the assay with the substrate, the cell morphology and the monolayer integrity were checked to ensure that the monolayer was of acceptable research quality. […]
d) Quantitative Detection with PXR Activation
After 24 hours of dosing, the culture could be quantitatively detected with PXR activation. The CellTiter-Fluor™ Cell Viability Assay Kit and One-Glo Luciferase reagent were equilibrated to room temperature. The GF-AFC substrate (10 μL) was added to the assay buffer (10 ml) to develop a 2× reagent, which was then diluted into a 1× reagent with 10 ml of PBS. The ONE-Glo Luciferase substrate was added to the ONE-Glo Luciferase assay buffer. The culture plate was taken out from the incubator; the medium was discarded; 1× of CellTiter-Fluor™ reagent was poured into the loading slot; 25 μL of reagent were added per well to the culture plate with a pipetting workstation; and the culture plate was then incubated in the incubator for 30 minutes. The cell culture plate was taken out from the incubator, and cooled slightly to room temperature; and the fluorescence value was determined with a fully automatic quantitative microplate reader, with the excitation light of 400 nm and the emission light of 505 nm. The ONE-Glo reagent was poured into the loading slot, with 25 μL per well, and the resulting mixture was gently mixed in the plate, and incubated at room temperature for 5 minutes to determine the luminescence value.

[6] = fassgf or other biorelevant, FaSSGF solution pH 1.6, 100 μM from DMSO stock, read-out: FaSSGF solubility
[7] = FaSSIF solution pH 6.5, 100 μM from DMSO stock, read-out: FaSSIF solubility

Row | IC50 [1] [nM] | IC50 [2] [nM] | IC50 [3] [nM] | solubility at 2 h [4, 6] [µM] | solubility at 2 h [4, 7] [µM] | PXR Activation @30 uM (Fold) [5] [Fold] | PXR Activation @30 uM (% Ctrl) [5] [% Ctrl] | IC50 ([3]; Homo sapiens, HCC1806, 168 h) [nM] | SMILES
1 | 128 |  |  |  |  |  |  |  | CC(C)C(=O)N1CCN(c2cc(S(=O)(=O)NC(C)C(F)(F)F)cn3c(-c4nnc(C(F)F)s4)ncc23)CC1 (stereo not shown) [Example 35, 3-(5-(difluoromethyl)-1,3,4-thiadiazol-2-yl)-8-(4-isobutyrylpiperazin-1-yl)-N-(1,1,1-trifluoropropan-2-yl)imidazo[1,5-a]pyridine-6-sulfonamide]
2 |  | 3.8 | 1100 | 75.7 (≈ 44.1 µg/mL) | 82.6 (≈ 48.1 µg/mL) | 1.5 | 7 |  | N#CC1(NS(=O)(=O)c2cc(N3CCN(C(=O)C4CCO4)CC3)c3cnc(-c4nnc(C(F)(F)F)s4)n3c2)CC1 (stereo not shown) [Example 236, N-(1-cyanocyclopropyl)-8-(4-(oxetane-2-carbonyl)piperazin-1-yl)-3-(5-(trifluoromethyl)-1,3,4-thiadiazol-2-yl)imidazo[1,5-a]pyridine-6-sulfonamide]
3 |  | 6.03 |  | 80.6 (≈ 46.9 µg/mL) | 78.1 (≈ 45.4 µg/mL) | 1.5 | 11 | 8780 | N#CC1(NS(=O)(=O)c2cc(N3CCN(C(=O)C4CNC4)CC3)c3cnc(-c4nnc(C(F)(F)F)s4)n3c2)CC1 [Example 251, 8-(4-(azetidine-3-carbonyl)piperazin-1-yl)-N-(1-cyanocyclopropyl)-3-(5-(trifluoromethyl)-1,3,4-thiadiazol-2-yl)imidazo[1,5-a]pyridine-6-sulfonamide]
